Experimental data published in article PMC7059070, “Synthesis and in-vitro Evaluation of S-allyl Cysteine Ester - Caffeic Acid Amide Hybrids as Potential Anticancer Agents” (Iranian Journal of Pharmaceutical Research : IJPR, 2019).
Read-outs that look alike come from different tables or passages of the source.

Experiments:
[1] = test system: SW480 human colon adenocarcinoma cells; assay: Cell viability, sulforhodamine B (SRB) assay, SW480 cells; format: cell-based; conditions: for IC50: Homo sapiens, SW480 cells, SRB; for SI (selectivity index), 24 h: ratio of IC50 against CHO-K1 to IC50 against SW480, 24 h; for SI (selectivity index), 48 h: ratio of IC50 against CHO-K1 to IC50 against SW480, 48 h
Protocol: (§1) Biological assays were performed using an adenocarcinoma colon cancer cell line (SW480) and non-malignant cells (CHO-K1). These were obtained from the European Collection of Authenticated Cell Cultures (ECACC, England) and maintained in Dulbecco’s Modified Eagle Medium, supplemented with 10% heat-inactivated (56 °C) horse serum, 1% penicillin/streptomycin and 1% non-essential amino acids (Gibco Invitrogen, Carlsbad, USA). For all experiments, horse serum was reduced to 3%, and the medium was supplemented with […] transferrin, 5 ng/mL selenium and […] insulin (ITS-defined medium; Gibco, Invitrogen, Carlsbad, USA) ([32]).
(§2) The cell viability of the synthesized hybrids, lead, and reference compounds was evaluated through Sulforhodamine B (SRB) assay, a colorimetric test that is based on staining of total cellular protein of adherent cells. The cells were seeded to a ﬁnal density of 20.000 cells/well in 96-well tissue culture plates and incubated at 37 °C in a humidified atmosphere at 5% CO2. […] After treatment, the cells were fixed with trichloroacetic acid (50% v/v) (MERCK) for a period of one h at 4 °C. The cell proteins were determined by staining with 0.4% (w/v) SRB (Sigma-Aldrich, United States), then they were washed with 1% acetic acid for the removal of unbound SRB and left for air-drying. Protein bound SRB was solubilized in 10 mM Tris-base and the absorbance was measured at 492 nm in a microplate reader (Mindray MR-96A) ([33]). All of the experiments were performed at least in quintuplicate.

[2] = test system: non-malignant CHO-K1 cell line; assay: Cell viability, sulforhodamine B (SRB) assay, CHO-K1 cells; format: cell-based; conditions: Cricetulus griseus
Protocol: as §1, §2

SW480 cells [3] = assay: Mitochondrial membrane potential (ΔΨm), DiOC6/PI flow cytometry; format: cell-based, human; conditions: SW480, treated at IC50, 48 h; for Mitochondrial membrane depolarization in words: vs control; for PI+ cells: cells in process of death; for DiOC6 low cells: cells that lose membrane polarization; for DiOC6 high cells: live cells with high membrane polarization
Protocol: Mitochondrial membrane permeability changes were assessed through the fluorescent dye DiOC6 (3,3’-dihexyloxacarbocyanine iodide, Thermo Fisher Scientiﬁc, Waltham, MA, USA), and propidium iodide (PI). The cells were seeded to a ﬁnal density of 2.5 x 10^5 cells/well in 6-well tissue culture plates and were allowed to grow for 24 h. […] The cells were collected to analyze 10,000 events by ﬂow cytometry with excitation at 488 nm and detection of the emission with the green (530/15 nm) and the red (610/20 nm) ﬁlters. This method allowed us quantifying cells with depolarized mitochondrial membrane ([34]).

SW480 cells [4] = assay: Cell cycle analysis, propidium iodide flow cytometry; format: cell-based, human; conditions: SW480, treated at IC50, 48 h
Protocol: Cell cycle distribution was analyzed by labelling cells with propidium iodide (PI). Assays were carried out as described by Nicoletti et al. (1991). In brief, cells were seeded in 6-well tissue culture plates at a density of 2.5 x 10^5 cells/well, incubated at 37 °C in a 5% CO2 atmosphere. […] After the treatment, the cells were collected by scraping and the centrifuged cell pellet was resuspended with phosphate buffered saline (PBS). The cell suspension was fixed in 1.8 mL 70% ethanol at 4°C overnight, afterward, these were centrifuged, washed twice in PBS and resuspended in 300 µL of PBS containing 0.25 mg/mL RNAse (Type I-A, Sigma-Aldrich, Germany) and 0.1 mg/mL PI. Following the incubation in the dark at room temperature for 30 min, the PI ﬂuorescence of 10,000 cells was analyzed using a FACS Canto II ﬂow cytometer and the software BD FACS Diva 6.1.3. (BD Biosciences, San Jose). PI signal was analyzed with excitation at 488 nm, using a Sapphire laser, and fluorescence was detected at 610nm. The cell clumps were excluded with the PI-Area vs PI-Width signals. The cell cycle model was ﬁxed using the software FlowJo 7.6.2 (Ashland, OR, USA), applying the Dean-Jett-Fox model ([34], [35]).

SW480 cells [5] = assay: Antiproliferative activity, SRB assay over 0-8 days; format: cell-based, human; conditions: 0.1-0.55 mM, p ≤ 0.05 vs control
Protocol: Briefly, the cells were seeded to a ﬁnal density of 2500 cells/well in 96-well tissue culture plates and incubated in the same conditions described for viability. […] Culture media was replaced every 48 h. After each incubation time, the cells were fixed, stained, and read as previously described for this technique ([32]).

[6] = 24 h treatment, read-out: IC50 (mM) SW480 cells, 24 h
[7] = 48 h treatment, read-out: IC50 (mM) SW480 cells, 48 h
[8] = 24 h treatment, read-out: IC50 (mM) CHO-K1 cells, 24 h
[9] = 48 h treatment, read-out: IC50 (mM) CHO-K1 cells, 48 h

Compound | IC50 [1, 6] | IC50 [1, 7] | SI (selectivity index), 24 h [1] | IC50 [2, 8] | IC50 [2, 9] | melting point | SI (selectivity index), 48 h [1] | Cytotoxic activity in words ([1]; at 24 h and 48 h after treatment) | Mitochondrial membrane depolarization in words (SW480 cells [3]) | PI+ cells (SW480 cells [3]) | DiOC6 low cells (SW480 cells [3]) | DiOC6 high cells (SW480 cells [3]) | Cells in G2/M phase (SW480 cells [4]) | Effect on cell cycle in words (SW480 cells [4]) | Cells in G0/G1 phase (SW480 cells [4]) | Cells in S phase (SW480 cells [4]) | Day from which significant antiproliferative activity was displayed (SW480 cells [5])
C=CCSC[C@H](N)C(=O)OC [3a, S-Allylcysteine methyl ester] | > 10 mM | > 10 mM | <0.19 | 1.85 mM | > 10 mM | 114 to 116 °C |  |  |  |  |  |  |  |  |  |  | 
C=CCSC[C@H](N)C(=O)OCCC [3c, Propyl S-prop-2-en-1-ylcysteinate] | > 10 mM | 1.28 mM | <0.15 | 1.5 mM | 1.24 mM | 115 to 117 °C | 0.97 |  |  |  |  |  |  |  |  |  | 
O=c1[nH]cc(F)c(=O)[nH]1 [5-Fluorouracil, 5-fluorouracil, reference compound] | 0.062 mM | 0.035 mM |  | 0.091 mM | 0.048 mM |  | 1.34 |  |  |  |  |  |  |  |  |  | 
C=CCSC[C@H](NC(=O)/C=C/c1ccc(OC(C)=O)c(OC(C)=O)c1)C(=O)OC [6a, Methyl N-{(2E)-3-[3,4-bis(acetyloxy)phenyl]prop-2-enoyl}-S-prop-2-en-1-ylcysteinate] | 0.67 mM | > 10 mM |  | 2.77 mM | 7.83 mM |  |  |  |  |  |  |  |  |  |  |  | 
C=CCSC[C@H](NC(=O)/C=C/c1ccc(OC(C)=O)c(OC(C)=O)c1)C(=O)OCC [6b, Ethyl N-{(2E)-3-[3,4-bis(acetyloxy)phenyl]prop-2-enoyl}-S-prop-2-en-1-ylcysteinate] | > 10 mM | > 10 mM |  | 3.84 mM | > 10 mM |  |  | did not exhibit activity |  |  |  |  |  |  |  |  | 
C=CCSC[C@H](NC(=O)/C=C/c1ccc(OC(C)=O)c(OC(C)=O)c1)C(=O)OCCC [6c, Propyl N-{(2E)-3-[3,4-bis(acetyloxy)phenyl]prop-2-enoyl}-S-prop-2-en-1-ylcysteinate] | 1.02 mM | > 10 mM | 0.26 | 0.27 mM | 1.25 mM | 80 to 82 °C | <0.13 |  |  |  |  |  |  |  |  |  | 
C=CCSC[C@H](NC(=O)/C=C/c1ccc(OC(C)=O)c(OC(C)=O)c1)C(=O)OCCCC [6d, Butyl N-{(2E)-3-[3,4-bis(acetyloxy)phenyl]prop-2-enoyl}-S-prop-2-en-1-ylcysteinate] | 2.79 mM | > 10 mM |  | 0.21 mM | 9.97 mM |  |  |  |  |  |  |  |  |  |  |  | 
C=CCSC[C@H](NC(=O)/C=C/c1ccc(O)c(O)c1)C(=O)OC [9a, Methyl N-[(2E)-3-(3,4-dihydroxyphenyl)-2-propenoyl]-S-2-propen-1-yl-L-cysteinate] | 0.24 mM | 0.12 mM | 2.0 | 0.47 mM | 0.18 mM | 101 to 103 °C | 1.5 |  | highest activity | 8,16% | 62,9% | 29,4% | 18.8% | cell cycle arrest in G2/M phase |  |  | 
C=CCSC[C@H](NC(=O)/C=C/c1ccc(O)c(O)c1)C(=O)OCC [9b, Ethyl N-[(2E)-3-(3,4-dihydroxyphenyl)-2-propenoyl]-S-2-propen-1-yl-L-cysteinate] | 0.93 mM | 0.12 mM |  | > 10 mM | > 10 mM |  |  |  |  | 21,9% | 36,5% | 42,0% |  | did not have any impact on the cell cycle |  |  | 
C=CCSC[C@H](NC(=O)/C=C/c1ccc(O)c(O)c1)C(=O)OCCC [9c, Propyl N-[(2E)-3-(3,4-dihydroxyphenyl)-2-propenoyl]-S-2-propen-1-yl-L-cysteinate] | 0.1 mM | 0.11 mM |  | 0.12 mM | > 10 mM |  |  |  |  | 9,13% | 45,0% | 44,5% |  | S- phase | 67.3% | 23% | 
C=CCSC[C@H](NC(=O)/C=C/c1ccc(O)c(O)c1)C(=O)OCCCC [9d, Butyl N-[(2E)-3-(3,4-dihydroxyphenyl)-2-propenoyl]-S-2-propen-1-yl-L-cysteinate] | 0.11 mM | 0.15 mM | >90.91 | > 10 mM | > 10 mM | 119 to 121 °C | >66.67 |  |  |  |  |  |  |  |  |  | 4 days
C=CCSC[C@H](NC(=O)/C=C/c1ccc(O)c(O)c1)C(=O)OCCCCC [9e, Pentyl N-[(2E)-3-(3,4-dihydroxyphenyl)-2-propenoyl]-S-2-propen-1-yl-L-cysteinate] | 0.2 mM | 0.12 mM |  | 0.21 mM | > 10 mM |  |  |  | highest activity | 8,32% | 59,9% | 32,5% | 22.3% | cell cycle arrest in G2/M phase |  |  | 2 days
O=C(O)/C=C/c1ccc(O)c(O)c1 [Caffeic acid] | 7.06 mM | 3.47 mM | >1.42 | > 10 mM | > 10 mM |  | >2.88 |  |  |  |  |  |  |  |  |  | 
C=CCSC[C@H](N)C(=O)O [S-Allylcysteine, reference compound] | > 10 mM | 0.38 mM | >1.0 | > 10 mM | > 10 mM |  | >26.32 |  |  |  |  |  |  |  |  |  | 
